Patent US20220202905A1, “COMPOSITION FOR PREVENTING OR TREATING NEUROTROPHIC KERATITIS WHICH CONTAINS PACAP PEPTIDE OR STABILIZED PACAP PEPTIDE” (SENJU PHARMACEUTICAL CO., LTD., priority 2019, published 2022)
Square brackets hold non-standard residues; d marks the D form. Peptide text beside a SMILES is read from it. Ala(1H-tetrazol-5-yl) = N[C@@H](Cc1nnn[nH]1)C(=O)O

Test: Peptide stability test, Tris buffer (pH 7.0), 60° C. storage, HPLC remaining rate
Format: physicochemical
Details: 100 μM in Tris buffer pH 7.0
Experimental: Peptides 1, 2 and 6 to 9 synthesized in Example 2 were weighed and dissolved in Tris buffer (pH 7.0) to prepare 1.0 mM peptide solutions. Each solution was filtered with a Chromatdisk (product of Merck Millipore, Millex-GV, 0.22 μm). The filtrate was diluted to 100 μM with Tris buffer (pH 7.0) and dispensed into a tube (Protein LoBind Tube by Eppendorf Co.). The prepared peptide solutions were incubated for 1 week or 2 weeks in a 60° C. thermostatic bath to obtain stored samples. A simultaneously prepared sample among the peptide solutions that was not stored was used as a standard sample (initial sample). The standard sample and the stored samples were stored at −30° C. until sample analysis. Each stored sample was measured under the following HPLC analysis conditions 2, and the remaining rate after correction for water for each peptide among the stored samples was calculated in the same manner as Example 3. Guard column: XSelect CSH C18 by Waters Co., 5 μm, 4.6×20 mm Guard Cartridge Detection wavelength: 220 nm Mobile phase A: 0.1% formic acid aqueous solution Mobile phase B: 0.1% acetonitrile formate solution Measuring time: 20 minutes Measuring sample injection rate: 50 μL Flow rate: 1.0 mL/min Column temperature: 40° C. Sample cooler: 25° C. Mobile phase delivery: The mixing ratio of mobile phase A and mobile phase B was varied as shown in Table 5 for linear concentration gradient control. Peptides 12 to 25, 27 and 28 synthesized in Example 2 were weighed and dissolved in Tris buffer (pH 7.0) to prepare 1.0 mM peptide solutions. Each solution was filtered with a Chromatdisk (product of Merck Millipore, Millex-GV, 0.22 μm). The filtrate was diluted to 100 μM with Tris buffer (pH 7.0) and dispensed into a tube (Protein LoBind Tube by Eppendorf Co.). The prepared peptide solutions were incubated for one week or 2 weeks in a 60° C. thermostatic bath to obtain stored samples. A simultaneously prepared sample among the peptide solutions that was not stored was used as a standard sample (initial sample). The standard sample and the stored samples were stored at −30° C. until sample analysis. The remaining rate after correction for water for each peptide among the stored samples was calculated in the same manner as Example 4, and the results are shown in Table 7. Peptides 29 to 34 synthesized in Example 2 were weighed and dissolved in Tris buffer (pH 7.0) to prepare 1.0 mM peptide solutions. Each solution was filtered with a Chromatdisk (product of Merck Millipore, Millex-GV, 0.22 μm). The filtrate was diluted to 100 μM with Tris buffer (pH 7.0) and dispensed into a tube (Protein LoBind Tube by Eppendorf Co.). The prepared peptide solutions were incubated for 2 weeks in a 60° C. thermostatic bath to obtain stored samples. A simultaneously prepared sample among the peptide solutions that was not stored was used as a standard sample (initial sample). The standard sample and the stored samples were stored at −30° C. until sample analysis. The remaining rate after correction for water for each peptide among the stored samples was calculated in the same manner as Example 4, and the results are shown in Table 7-2. Peptide 26 synthesized in Example 2 was weighed and dissolved in Tris buffer (pH 7.0) to prepare a 1.0 mM peptide solution. The solution was filtered with a Chromatdisk (product of Merck Millipore, Millex-GV, 0.22 μm). The filtrate was diluted to 100 μM with Tris buffer (pH 7.0) and dispensed into a tube (Protein LoBind Tube by Eppendorf Co.). The prepared peptide solution was incubated for one week or 2 weeks in a 60° C. thermostatic bath to obtain stored samples. A simultaneously prepared sample among the peptide solutions that was not stored was used as a standard sample (initial sample). The standard sample and the stored sample were stored at −30° C. until sample analysis. […]

## CC[C@H](C)[C@H](NC(=O)CNC(=O)[C@H](Cc1nnn[nH]1)NC(=O)[C@H](CO)NC(=O)[C@H](Cc1c[nH]cn1)NC(C)=O)C(=O)N[C@@H](Cc1ccccc1)C(=O)N[C@H](C(=O)N[C@@H](Cc1nnn[nH]1)C(=O)N[C@@H](C)C(=O)N[C@@H](Cc1ccc(O)cc1)C(=O)N[C@@H](CO)C(=O)N[C@@H](CCCNC(=N)N)C(=O)N[C@@H](Cc1ccc(O)cc1)C(=O)N[C@@H](CCCNC(=N)N)C(=O)N[C@@H](CCCCN)C(=O)N[C@@H](C)C(=O)N[C@@H](CC(C)C)C(=O)N[C@@H](C)C(=O)N[C@H](C(=O)N[C@@H](CCCCN)C(=O)N[C@@H](CCCCN)C(=O)N[C@@H](Cc1ccc(O)cc1)C(=O)N[C@@H](CC(C)C)C(=O)N[C@@H](C)C(=O)N[C@@H](C)C(=O)N[C@H](C(=O)N[C@@H](CC(C)C)C(N)=O)C(C)C)C(C)C)[C@@H](C)O [Peptide 26] (Ac-HS[Ala(1H-tetrazol-5-yl)]GIFT[Ala(1H-tetrazol-5-yl)]AYSRYRKALAVKKYLAAVL-NH2)
Table 10, HPLC conditions 3
  remaining rate after correction for water, 60° C., 1 week preservation: 98.0%
  remaining rate after correction for water, 60° C., 2 weeks preservation: 94.8%

## CC[C@H](C)[C@H](NC(=O)CNC(=O)[C@H](Cc1nnn[nH]1)NC(=O)[C@H](C)NC(=O)[C@H](Cc1c[nH]cn1)NC(C)=O)C(=O)N[C@@H](Cc1ccccc1)C(=O)N[C@H](C(=O)N[C@@H](Cc1nnn[nH]1)C(=O)N[C@@H](C)C(=O)N[C@@H](Cc1ccc(O)cc1)C(=O)N[C@@H](CO)C(=O)N[C@@H](CCCNC(=N)N)C(=O)N[C@@H](Cc1ccc(O)cc1)C(=O)N[C@@H](CCCNC(=N)N)C(=O)N[C@@H](CCCCN)C(=O)N[C@@H](CCC(N)=O)C(=O)N[C@@H](CC(C)C)C(=O)N[C@@H](C)C(=O)N[C@H](C(=O)N[C@@H](CCCCN)C(=O)N[C@@H](CCCCN)C(=O)N[C@@H](Cc1ccc(O)cc1)C(=O)N[C@@H](CC(C)C)C(=O)N[C@@H](C)C(=O)N[C@@H](C)C(=O)N[C@H](C(=O)N[C@@H](CC(C)C)C(N)=O)C(C)C)C(C)C)[C@@H](C)O [Peptide 24] (Ac-HA[Ala(1H-tetrazol-5-yl)]GIFT[Ala(1H-tetrazol-5-yl)]AYSRYRKQLAVKKYLAAVL-NH2)
Table 7
  remaining rate after correction for water, 60° C., 1 week preservation: 98.1%
  remaining rate after correction for water, 60° C., 2 weeks preservation: 94.3%

## CC[C@H](C)[C@H](NC(=O)CNC(=O)[C@H](Cc1nnn[nH]1)NC(=O)[C@H](CO)NC(=O)[C@@H](N)Cc1c[nH]cn1)C(=O)N[C@@H](Cc1ccccc1)C(=O)N[C@H](C(=O)N[C@@H](Cc1nnn[nH]1)C(=O)N[C@@H](CO)C(=O)N[C@@H](Cc1ccc(O)cc1)C(=O)N[C@@H](CO)C(=O)N[C@@H](CCCNC(=N)N)C(=O)N[C@@H](Cc1ccc(O)cc1)C(=O)N[C@@H](CCCNC(=N)N)C(=O)N[C@@H](CCCCN)C(=O)N[C@@H](CCC(N)=O)C(=O)N[C@@H](CC(C)C)C(=O)N[C@@H](C)C(=O)N[C@H](C(=O)N[C@@H](CCCCN)C(=O)N[C@@H](CCCCN)C(=O)N[C@@H](Cc1ccc(O)cc1)C(=O)N[C@@H](CC(C)C)C(=O)N[C@@H](C)C(=O)N[C@@H](C)C(=O)N[C@H](C(=O)N[C@@H](CC(C)C)C(N)=O)C(C)C)C(C)C)[C@@H](C)O [Peptide 7] (H-HS[Ala(1H-tetrazol-5-yl)]GIFT[Ala(1H-tetrazol-5-yl)]SYSRYRKQLAVKKYLAAVL-NH2)
Table 6, HPLC conditions 2
  remaining rate after correction for water, 60° C., 1 week preservation: 91.7%
  remaining rate after correction for water, 60° C., 2 weeks preservation: 84.8%

## CC[C@H](C)[C@H](NC(=O)[C@H](C)NC(=O)[C@H](Cc1nnn[nH]1)NC(=O)[C@H](C)NC(=O)[C@H](Cc1c[nH]cn1)NC(C)=O)C(=O)N[C@@H](Cc1ccccc1)C(=O)N[C@H](C(=O)N[C@@H](Cc1nnn[nH]1)C(=O)N[C@@H](CO)C(=O)N[C@@H](Cc1ccc(O)cc1)C(=O)N[C@@H](CO)C(=O)N[C@@H](CCCNC(=N)N)C(=O)N[C@@H](Cc1ccc(O)cc1)C(=O)N[C@@H](CCCNC(=N)N)C(=O)N[C@@H](CCCCN)C(=O)N[C@@H](CCC(N)=O)C(=O)N[C@@H](C)C(=O)N[C@@H](C)C(=O)N[C@H](C(=O)N[C@@H](CCCCN)C(=O)N[C@@H](CCCCN)C(=O)N[C@@H](Cc1ccc(O)cc1)C(=O)N[C@@H](CC(C)C)C(=O)N[C@@H](C)C(=O)N[C@@H](C)C(=O)N[C@H](C(=O)N[C@@H](CC(C)C)C(N)=O)C(C)C)C(C)C)[C@@H](C)O [Peptide 33] (Ac-HA[Ala(1H-tetrazol-5-yl)]AIFT[Ala(1H-tetrazol-5-yl)]SYSRYRKQAAVKKYLAAVL-NH2)
Table 7-2
  remaining rate after correction for water, 60° C., 2 weeks preservation: 85.3%

## CC[C@H](C)[C@H](NC(=O)[C@H](C)NC(=O)[C@H](Cc1nnn[nH]1)NC(=O)[C@H](CO)NC(=O)[C@H](Cc1c[nH]cn1)NC(C)=O)C(=O)N[C@@H](Cc1ccccc1)C(=O)N[C@H](C(=O)N[C@@H](Cc1nnn[nH]1)C(=O)N[C@@H](CO)C(=O)N[C@@H](Cc1ccc(O)cc1)C(=O)N[C@@H](CO)C(=O)N[C@@H](CCCNC(=N)N)C(=O)N[C@@H](Cc1ccc(O)cc1)C(=O)N[C@@H](CCCNC(=N)N)C(=O)N[C@@H](CCCCN)C(=O)N[C@@H](C)C(=O)N[C@@H](C)C(=O)N[C@@H](C)C(=O)N[C@H](C(=O)N[C@@H](CCCCN)C(=O)N[C@@H](CCCCN)C(=O)N[C@@H](Cc1ccc(O)cc1)C(=O)N[C@@H](CC(C)C)C(=O)N[C@@H](C)C(=O)N[C@@H](C)C(=O)N[C@H](C(=O)N[C@@H](CC(C)C)C(N)=O)C(C)C)C(C)C)[C@@H](C)O [Peptide 34] (Ac-HS[Ala(1H-tetrazol-5-yl)]AIFT[Ala(1H-tetrazol-5-yl)]SYSRYRKAAAVKKYLAAVL-NH2)
Table 7-2
  remaining rate after correction for water, 60° C., 2 weeks preservation: 96.9%

## CC[C@H](C)[C@H](NC(=O)[C@H](C)NC(=O)[C@H](Cc1nnn[nH]1)NC(=O)[C@H](CO)NC(=O)[C@H](Cc1c[nH]cn1)NC(C)=O)C(=O)N[C@@H](Cc1ccccc1)C(=O)N[C@H](C(=O)N[C@@H](Cc1nnn[nH]1)C(=O)N[C@@H](CO)C(=O)N[C@@H](Cc1ccc(O)cc1)C(=O)N[C@@H](CO)C(=O)N[C@@H](CCCNC(=N)N)C(=O)N[C@@H](Cc1ccc(O)cc1)C(=O)N[C@@H](CCCNC(=N)N)C(=O)N[C@@H](CCCCN)C(=O)N[C@@H](CCC(N)=O)C(=O)N[C@@H](C)C(=O)N[C@@H](C)C(=O)N[C@H](C(=O)N[C@@H](CCCCN)C(=O)N[C@@H](CCCCN)C(=O)N[C@@H](Cc1ccc(O)cc1)C(=O)N[C@@H](CC(C)C)C(=O)N[C@@H](C)C(=O)N[C@@H](C)C(=O)N[C@H](C(=O)N[C@@H](CC(C)C)C(N)=O)C(C)C)C(C)C)[C@@H](C)O [Peptide 32] (Ac-HS[Ala(1H-tetrazol-5-yl)]AIFT[Ala(1H-tetrazol-5-yl)]SYSRYRKQAAVKKYLAAVL-NH2)
Table 7-2
  remaining rate after correction for water, 60° C., 2 weeks preservation: 88.7%

## CC[C@H](C)[C@H](NC(=O)CNC(=O)[C@H](Cc1nnn[nH]1)NC(=O)[C@H](CO)NC(=O)[C@H](Cc1c[nH]cn1)NC(C)=O)C(=O)N[C@@H](Cc1ccccc1)C(=O)N[C@H](C(=O)N[C@@H](Cc1nnn[nH]1)C(=O)N[C@@H](CO)C(=O)N[C@@H](Cc1ccc(O)cc1)C(=O)N[C@@H](CO)C(=O)N[C@@H](CCCNC(=N)N)C(=O)N[C@@H](Cc1ccc(O)cc1)C(=O)N[C@@H](CCCNC(=N)N)C(=O)N[C@@H](CCCCN)C(=O)N[C@@H](CCC(N)=O)C(=O)N[C@@H](CC(C)C)C(=O)N[C@@H](C)C(=O)N[C@H](C(=O)N[C@@H](CCCCN)C(=O)N[C@@H](CCCCN)C(=O)N[C@@H](Cc1ccc(O)cc1)C(=O)N[C@@H](CC(C)C)C(=O)N[C@@H](C)C(=O)N[C@@H](C)C(=O)N[C@H](C(=O)N[C@@H](C)C(N)=O)C(C)C)C(C)C)[C@@H](C)O [Peptide 20] (Ac-HS[Ala(1H-tetrazol-5-yl)]GIFT[Ala(1H-tetrazol-5-yl)]SYSRYRKQLAVKKYLAAVA-NH2)
Table 7
  remaining rate after correction for water, 60° C., 1 week preservation: 93.9%
  remaining rate after correction for water, 60° C., 2 weeks preservation: 91.8%
